Test [1] has as its target Serine/threonine-protein kinase SIK2 (Homo sapiens) (UniProt Q9H0K1). The test is described as follows: Inhibition of T7 bacteriophage fused human SIK2 at 10 uM by KINOMEscan analysis relative to control.
Test [2] addresses STE20-like serine/threonine-protein kinase (Homo sapiens) (UniProt Q9H2G2). The test can be described thus: Inhibition of T7 bacteriophage fused human SLK at 10 uM by KINOMEscan analysis relative to control.
Test [3] addresses Proto-oncogene tyrosine-protein kinase Src (Homo sapiens) (UniProt P12931). The test can be described thus: Inhibition of T7 bacteriophage fused human SRC at 10 uM by KINOMEscan analysis relative to control.
Test [4] has as its target SRSF protein kinase 3 (Homo sapiens) (UniProt Q9UPE1). The test can be described thus: Inhibition of T7 bacteriophage fused human SRPK3 at 10 uM by KINOMEscan analysis relative to control.
For test [5], the target named is Serine/threonine-protein kinase 33 (Homo sapiens) (UniProt Q9BYT3). The test is described as follows: Inhibition of T7 bacteriophage fused human STK33 at 10 uM by KINOMEscan analysis relative to control.
Test [6] has as its target T1, Mitogen-activated protein kinase kinase kinase 7 (Homo sapiens) (UniProt O43318).
T1 sequence (whole entry): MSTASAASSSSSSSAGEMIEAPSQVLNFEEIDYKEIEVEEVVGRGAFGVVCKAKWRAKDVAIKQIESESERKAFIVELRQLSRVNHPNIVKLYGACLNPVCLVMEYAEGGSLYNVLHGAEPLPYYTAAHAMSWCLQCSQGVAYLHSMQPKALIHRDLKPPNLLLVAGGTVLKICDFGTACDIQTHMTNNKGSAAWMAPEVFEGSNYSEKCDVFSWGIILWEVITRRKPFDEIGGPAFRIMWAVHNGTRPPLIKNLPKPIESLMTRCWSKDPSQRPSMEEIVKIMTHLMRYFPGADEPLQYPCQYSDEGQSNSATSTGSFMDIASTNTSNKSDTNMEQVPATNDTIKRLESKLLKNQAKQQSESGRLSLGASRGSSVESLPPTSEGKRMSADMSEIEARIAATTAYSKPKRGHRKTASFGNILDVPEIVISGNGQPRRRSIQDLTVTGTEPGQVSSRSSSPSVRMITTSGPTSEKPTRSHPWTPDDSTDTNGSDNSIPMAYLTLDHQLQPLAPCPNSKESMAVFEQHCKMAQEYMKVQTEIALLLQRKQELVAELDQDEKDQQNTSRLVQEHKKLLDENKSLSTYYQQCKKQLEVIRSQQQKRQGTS
The test can be described thus: Inhibition of T7 bacteriophage fused human TAK1 at 10 uM by KINOMEscan analysis relative to control.

The target in test [7] is Serine/threonine-protein kinase TAO3 (Homo sapiens) (UniProt Q9H2K8). The test is described as follows: Inhibition of T7 bacteriophage fused human TAOK3 at 10 uM by KINOMEscan analysis relative to control.
Test [8] addresses TGF-beta receptor type-2 (Homo sapiens) (UniProt P37173). The test can be described thus: Inhibition of T7 bacteriophage fused human TGFBR2 at 10 uM by KINOMEscan analysis relative to control.
In test [9] the target is TRAF2 and NCK-interacting protein kinase (Homo sapiens) (UniProt Q9UKE5). The test is described as follows: Inhibition of T7 bacteriophage fused human TNIK at 10 uM by KINOMEscan analysis relative to control.
Test [10] concerns the target Non-receptor tyrosine-protein kinase TYK2 (Homo sapiens) (UniProt P29597). The test is described as follows: Inhibition of T7 bacteriophage fused human TYK2 JH1 catalytic domain at 10 uM by KINOMEscan analysis relative to control.
Test [11] addresses T2, Serine/threonine-protein kinase ULK1 (Homo sapiens) (UniProt O75385).
T2 sequence (whole entry): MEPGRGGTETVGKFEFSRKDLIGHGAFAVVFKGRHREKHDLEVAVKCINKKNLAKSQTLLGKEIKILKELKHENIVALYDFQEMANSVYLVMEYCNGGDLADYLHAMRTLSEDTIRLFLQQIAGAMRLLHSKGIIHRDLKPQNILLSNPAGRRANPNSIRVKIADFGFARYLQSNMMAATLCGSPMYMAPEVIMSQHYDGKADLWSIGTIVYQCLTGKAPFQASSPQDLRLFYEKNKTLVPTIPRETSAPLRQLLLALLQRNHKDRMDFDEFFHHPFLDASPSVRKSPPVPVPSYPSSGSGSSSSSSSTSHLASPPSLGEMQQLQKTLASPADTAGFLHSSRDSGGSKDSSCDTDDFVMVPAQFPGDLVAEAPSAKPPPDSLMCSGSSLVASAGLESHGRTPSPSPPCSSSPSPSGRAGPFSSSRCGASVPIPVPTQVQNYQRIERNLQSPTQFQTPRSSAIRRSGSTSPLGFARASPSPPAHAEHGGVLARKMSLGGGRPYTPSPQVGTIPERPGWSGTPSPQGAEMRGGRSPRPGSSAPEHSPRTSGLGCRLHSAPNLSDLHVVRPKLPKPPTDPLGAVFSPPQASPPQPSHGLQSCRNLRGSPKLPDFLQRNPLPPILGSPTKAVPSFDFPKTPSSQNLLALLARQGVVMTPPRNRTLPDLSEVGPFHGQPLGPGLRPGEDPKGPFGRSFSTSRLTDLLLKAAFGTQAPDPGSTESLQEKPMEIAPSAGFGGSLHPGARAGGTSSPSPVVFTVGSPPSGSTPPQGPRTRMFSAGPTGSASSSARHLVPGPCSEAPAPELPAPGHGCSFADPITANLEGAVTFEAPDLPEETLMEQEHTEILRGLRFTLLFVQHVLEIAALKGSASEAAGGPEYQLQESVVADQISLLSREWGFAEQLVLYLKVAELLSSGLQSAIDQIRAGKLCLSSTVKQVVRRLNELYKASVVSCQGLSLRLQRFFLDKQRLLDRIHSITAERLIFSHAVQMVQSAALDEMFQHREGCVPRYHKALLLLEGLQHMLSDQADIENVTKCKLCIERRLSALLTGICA
The test is described as follows: Inhibition of T7 bacteriophage fused human ULK1 at 10 uM by KINOMEscan analysis relative to control.

In test [12] the target is Wee1-like protein kinase (Homo sapiens) (UniProt P30291). The test is described as follows: Inhibition of T7 bacteriophage fused human WEE1 at 10 uM by KINOMEscan analysis relative to control.
Test [13] has as its target Tyrosine-protein kinase Yes (Homo sapiens) (UniProt P07947). The test can be described thus: Inhibition of T7 bacteriophage fused human YES at 10 uM by KINOMEscan analysis relative to control.
The target of test [14] is Peripheral plasma membrane protein CASK (Homo sapiens) (UniProt O14936). The test is described as follows: Inhibition of T7 bacteriophage fused human CASK at 10 uM by KINOMEscan analysis relative to control.
Test [15] has as its target Serine/threonine-protein kinase 4 (Homo sapiens) (UniProt Q13043). The test is described as follows: Inhibition of T7 bacteriophage fused human MST1 at 10 uM by KINOMEscan analysis relative to control; values are per cent of control.
For test [16], the target named is Microtubule-associated serine/threonine-protein kinase 1 (Homo sapiens) (UniProt Q9Y2H9). The test is described as follows: Inhibition of T7 bacteriophage fused human MAST1 at 10 uM by KINOMEscan analysis relative to control; values are per cent of control.

TGF-beta receptor type-2 (Homo sapiens), sequence (P37173 whole entry, the tested form may be a part): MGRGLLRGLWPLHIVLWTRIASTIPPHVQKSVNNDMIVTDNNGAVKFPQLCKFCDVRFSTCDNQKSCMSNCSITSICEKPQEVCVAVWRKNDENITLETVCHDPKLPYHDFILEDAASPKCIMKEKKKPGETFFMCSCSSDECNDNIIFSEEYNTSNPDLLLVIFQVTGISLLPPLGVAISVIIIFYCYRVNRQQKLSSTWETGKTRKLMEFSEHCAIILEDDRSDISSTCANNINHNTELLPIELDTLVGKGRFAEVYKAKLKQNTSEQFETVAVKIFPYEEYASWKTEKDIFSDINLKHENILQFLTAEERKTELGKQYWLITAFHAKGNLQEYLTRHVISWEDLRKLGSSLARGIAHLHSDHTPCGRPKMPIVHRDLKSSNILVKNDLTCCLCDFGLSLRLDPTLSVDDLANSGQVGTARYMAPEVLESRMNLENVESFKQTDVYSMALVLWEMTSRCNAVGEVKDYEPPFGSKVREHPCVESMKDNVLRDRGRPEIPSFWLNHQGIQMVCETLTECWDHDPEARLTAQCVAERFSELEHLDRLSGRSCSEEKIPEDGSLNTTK
STE20-like serine/threonine-protein kinase (Homo sapiens), sequence (Q9H2G2 whole entry, looked up, the tested form may be a part): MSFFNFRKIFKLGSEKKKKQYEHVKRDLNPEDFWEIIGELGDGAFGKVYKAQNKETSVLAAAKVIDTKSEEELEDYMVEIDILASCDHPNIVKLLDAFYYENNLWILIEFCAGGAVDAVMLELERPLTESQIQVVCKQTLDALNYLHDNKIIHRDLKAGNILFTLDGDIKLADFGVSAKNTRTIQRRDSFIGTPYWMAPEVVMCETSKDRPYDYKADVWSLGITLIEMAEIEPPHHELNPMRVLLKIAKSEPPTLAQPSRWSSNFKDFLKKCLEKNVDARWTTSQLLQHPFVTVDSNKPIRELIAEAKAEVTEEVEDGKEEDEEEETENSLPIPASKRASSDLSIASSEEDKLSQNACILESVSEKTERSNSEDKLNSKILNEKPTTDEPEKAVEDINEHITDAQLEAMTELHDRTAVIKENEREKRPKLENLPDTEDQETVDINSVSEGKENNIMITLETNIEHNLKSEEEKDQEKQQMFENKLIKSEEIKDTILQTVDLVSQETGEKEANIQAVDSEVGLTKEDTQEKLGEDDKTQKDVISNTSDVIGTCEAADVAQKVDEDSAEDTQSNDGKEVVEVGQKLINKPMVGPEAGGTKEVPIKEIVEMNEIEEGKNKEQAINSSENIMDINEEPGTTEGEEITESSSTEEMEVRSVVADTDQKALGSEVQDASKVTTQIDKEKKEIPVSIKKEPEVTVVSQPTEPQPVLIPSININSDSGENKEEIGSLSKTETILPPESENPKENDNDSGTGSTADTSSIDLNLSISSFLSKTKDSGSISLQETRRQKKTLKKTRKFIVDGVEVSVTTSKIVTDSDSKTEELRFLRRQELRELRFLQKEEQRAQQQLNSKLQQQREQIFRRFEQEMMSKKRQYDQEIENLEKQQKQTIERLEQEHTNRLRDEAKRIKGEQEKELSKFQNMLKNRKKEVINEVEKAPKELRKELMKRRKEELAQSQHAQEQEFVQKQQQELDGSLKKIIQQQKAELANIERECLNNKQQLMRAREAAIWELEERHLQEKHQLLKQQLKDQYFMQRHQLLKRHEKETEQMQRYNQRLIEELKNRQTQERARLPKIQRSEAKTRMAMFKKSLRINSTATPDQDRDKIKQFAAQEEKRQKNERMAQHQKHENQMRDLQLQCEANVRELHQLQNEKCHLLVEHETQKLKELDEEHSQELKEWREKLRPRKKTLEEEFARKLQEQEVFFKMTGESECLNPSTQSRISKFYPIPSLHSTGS
Serine/threonine-protein kinase 4 (Homo sapiens), sequence (Q13043 whole entry, looked up, the tested form may be a part): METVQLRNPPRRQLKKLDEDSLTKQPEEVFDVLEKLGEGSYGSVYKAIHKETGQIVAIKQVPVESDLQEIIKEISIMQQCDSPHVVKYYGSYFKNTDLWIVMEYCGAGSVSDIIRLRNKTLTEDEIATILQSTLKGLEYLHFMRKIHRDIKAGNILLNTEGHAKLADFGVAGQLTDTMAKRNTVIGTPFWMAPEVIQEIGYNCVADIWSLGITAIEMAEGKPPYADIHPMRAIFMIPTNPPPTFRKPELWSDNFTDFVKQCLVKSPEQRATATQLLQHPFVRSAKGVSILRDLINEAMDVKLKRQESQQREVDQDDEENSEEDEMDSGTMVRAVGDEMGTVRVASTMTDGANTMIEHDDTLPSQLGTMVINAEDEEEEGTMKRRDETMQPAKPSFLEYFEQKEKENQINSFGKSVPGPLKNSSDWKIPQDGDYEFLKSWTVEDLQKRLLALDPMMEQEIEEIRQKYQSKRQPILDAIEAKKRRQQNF
TRAF2 and NCK-interacting protein kinase (Homo sapiens), sequence (Q9UKE5 whole entry, looked up, the tested form may be a part): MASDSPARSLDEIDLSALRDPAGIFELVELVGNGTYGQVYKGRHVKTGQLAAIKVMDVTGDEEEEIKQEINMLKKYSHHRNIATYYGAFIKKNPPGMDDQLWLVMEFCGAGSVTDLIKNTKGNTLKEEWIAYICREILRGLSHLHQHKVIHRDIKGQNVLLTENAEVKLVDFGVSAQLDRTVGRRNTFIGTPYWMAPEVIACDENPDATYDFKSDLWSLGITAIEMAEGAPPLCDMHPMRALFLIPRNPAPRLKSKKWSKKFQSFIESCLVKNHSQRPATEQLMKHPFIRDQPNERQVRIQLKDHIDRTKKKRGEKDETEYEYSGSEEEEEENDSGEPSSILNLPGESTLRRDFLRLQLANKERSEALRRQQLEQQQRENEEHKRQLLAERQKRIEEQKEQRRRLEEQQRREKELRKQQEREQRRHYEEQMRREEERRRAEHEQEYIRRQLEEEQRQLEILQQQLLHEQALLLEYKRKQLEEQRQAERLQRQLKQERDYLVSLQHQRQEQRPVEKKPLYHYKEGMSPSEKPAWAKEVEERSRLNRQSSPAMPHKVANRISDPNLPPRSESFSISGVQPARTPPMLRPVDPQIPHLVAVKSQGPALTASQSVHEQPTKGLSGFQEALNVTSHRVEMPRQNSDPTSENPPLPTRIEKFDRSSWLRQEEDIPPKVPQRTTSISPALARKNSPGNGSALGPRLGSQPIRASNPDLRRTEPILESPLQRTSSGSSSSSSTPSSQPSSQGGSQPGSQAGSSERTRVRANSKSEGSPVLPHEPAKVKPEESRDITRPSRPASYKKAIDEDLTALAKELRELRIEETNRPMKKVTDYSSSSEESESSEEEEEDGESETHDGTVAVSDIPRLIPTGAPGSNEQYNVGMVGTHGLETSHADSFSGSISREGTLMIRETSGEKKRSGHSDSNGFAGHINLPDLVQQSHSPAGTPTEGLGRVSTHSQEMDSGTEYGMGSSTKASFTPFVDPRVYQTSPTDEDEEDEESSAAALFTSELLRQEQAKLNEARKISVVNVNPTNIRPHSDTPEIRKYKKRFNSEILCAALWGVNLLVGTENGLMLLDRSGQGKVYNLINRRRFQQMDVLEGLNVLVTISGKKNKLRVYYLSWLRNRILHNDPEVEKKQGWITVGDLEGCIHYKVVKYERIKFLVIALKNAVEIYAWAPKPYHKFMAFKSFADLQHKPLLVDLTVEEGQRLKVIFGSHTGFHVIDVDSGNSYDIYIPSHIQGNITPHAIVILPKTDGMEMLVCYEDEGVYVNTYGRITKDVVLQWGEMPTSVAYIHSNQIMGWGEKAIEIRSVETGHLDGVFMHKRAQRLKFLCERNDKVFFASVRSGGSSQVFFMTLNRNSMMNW
Serine/threonine-protein kinase TAO3 (Homo sapiens), sequence (Q9H2K8 whole entry, the tested form may be a part): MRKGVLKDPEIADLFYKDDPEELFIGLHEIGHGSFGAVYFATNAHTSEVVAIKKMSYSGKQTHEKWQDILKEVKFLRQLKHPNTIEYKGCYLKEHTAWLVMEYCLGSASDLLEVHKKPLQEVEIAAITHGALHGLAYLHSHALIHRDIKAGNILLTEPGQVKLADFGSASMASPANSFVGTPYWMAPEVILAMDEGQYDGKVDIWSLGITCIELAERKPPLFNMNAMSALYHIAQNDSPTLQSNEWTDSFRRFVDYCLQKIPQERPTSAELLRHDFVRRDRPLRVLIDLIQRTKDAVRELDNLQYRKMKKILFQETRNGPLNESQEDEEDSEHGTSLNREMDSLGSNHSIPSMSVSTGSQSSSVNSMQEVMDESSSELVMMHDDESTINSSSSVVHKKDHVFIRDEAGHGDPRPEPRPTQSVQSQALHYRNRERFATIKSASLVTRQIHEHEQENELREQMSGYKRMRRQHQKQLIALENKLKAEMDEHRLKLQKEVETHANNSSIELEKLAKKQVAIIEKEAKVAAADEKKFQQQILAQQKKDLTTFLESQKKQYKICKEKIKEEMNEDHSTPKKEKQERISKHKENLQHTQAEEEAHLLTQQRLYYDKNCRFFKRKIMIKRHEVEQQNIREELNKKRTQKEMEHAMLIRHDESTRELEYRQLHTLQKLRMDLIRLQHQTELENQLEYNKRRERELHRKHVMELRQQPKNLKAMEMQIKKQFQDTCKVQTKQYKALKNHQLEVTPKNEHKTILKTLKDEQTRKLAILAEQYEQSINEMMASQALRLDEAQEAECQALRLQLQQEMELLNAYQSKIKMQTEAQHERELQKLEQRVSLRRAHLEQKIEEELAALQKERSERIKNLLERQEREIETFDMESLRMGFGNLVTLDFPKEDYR
Tyrosine-protein kinase Yes (Homo sapiens), sequence (P07947 2-543 limits assumed): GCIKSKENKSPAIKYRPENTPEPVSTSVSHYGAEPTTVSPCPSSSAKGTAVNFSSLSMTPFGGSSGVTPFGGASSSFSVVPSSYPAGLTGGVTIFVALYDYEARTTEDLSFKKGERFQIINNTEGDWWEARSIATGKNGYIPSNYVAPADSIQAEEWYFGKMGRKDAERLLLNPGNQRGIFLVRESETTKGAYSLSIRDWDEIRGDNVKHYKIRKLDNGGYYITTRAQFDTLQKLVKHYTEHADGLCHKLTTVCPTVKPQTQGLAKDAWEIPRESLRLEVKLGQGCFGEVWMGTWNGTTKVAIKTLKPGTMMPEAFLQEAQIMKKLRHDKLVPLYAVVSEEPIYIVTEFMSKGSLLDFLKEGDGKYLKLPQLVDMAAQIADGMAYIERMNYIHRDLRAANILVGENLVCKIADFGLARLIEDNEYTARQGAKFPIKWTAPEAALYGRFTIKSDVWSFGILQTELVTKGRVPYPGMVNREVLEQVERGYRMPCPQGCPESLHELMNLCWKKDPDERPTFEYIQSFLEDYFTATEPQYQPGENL

One may read the inhibition as how much of the control response was suppressed. Usually residual activity stands for the activity still measured, relative to the control. A higher residual activity goes with much activity left. Take `COc1cc(N2CCC(N3CCN(C)CC3)CC2)ccc1Nc1ncc2c(n1)N(C)c1ccccc1C(=O)N2C`: the inhibition in test [1] worked out at 98%; in [2] it was 100%; in test [3], 100%; in test [4], 72%; in test [5] it was 10%; in test [6], 98%. Besides, the inhibition amounted to 24% in test [7]; 100% in test [8]; 100% in test [9]; 52% in [10]; 80% in [11]; 100% in test [12]. Moreover, the inhibition was determined as 100% in test [13] and 85% in test [14]. Further, the residual activity in test [15] and in test [16] was 100% throughout.
Take `COc1cc(C(=O)N2CCC(N3CCN(C)CC3)CC2)ccc1Nc1ncc2c(n1)N(C1CCCC1)c1ccccc1C(=O)N2C`: the inhibition in [2], in test [6], in [7], in test [8], in [9] and in test [10] was 100% throughout. The inhibition in test [11] and in test [14] was 100% in each case. The compound also showed a residual activity in [15] of 100%.
Turning to `CCOc1cc(C(=O)N2CCC(N3CCN(C)CC3)CC2)ccc1Nc1ncc2c(n1)N(C1CCCC1)c1ccccc1C(=O)N2C`, the inhibition in test [1], in [2], in test [3], in [4], in test [5] and in [6] was 100% each time. Also, the inhibition in test [8], in [11], in [12] and in [13] was 100% in each case. Besides, the residual activity in test [15] and in test [16] was 100% throughout.

The record behind these values is ChEMBL document CHEMBL5678810.
